Tests used:
Assay in all cases: relative viability (nuclei count vs DMSO), 5 days (fraction); higher = more cells survive
NVP-TAE684 + Decitabine = compound: COc1cc(N2CCC(N3CCN(C)CC3)CC2)ccc1Nc1ncc(Cl)c(Nc2ccccc2S(=O)(=O)C(C)C)n1 [NVP-TAE684] + Nc1ncn([C@H]2C[C@H](O)[C@@H](CO)O2)c(=O)n1 [Decitabine] (partner 2 µM)
Summary of the method: (§1)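 Nuclei were stained with Hoechst during a one-step fixation (final 0.05% Triton X-100, 1% formaldehyde, 1 ug/ml Hoechst) carried out 5 days after dosing, then counted on 4× images. The cells, lung cancer lines in 1536-well plates, had been dosed by pin tool the day after seeding with one drug alone or a fixed anchor-drug dose plus five library-drug doses (not always all listed) in √10 steps. Relative viability is the nuclei count in treated wells divided by that in vehicle wells, and each value is the median of duplicate plates.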

Vandetanib + Navitoclax = compound: COc1cc2/c(=N/c3ccc(Br)cc3F)nc[nH]c2cc1OCC1CCN(C)CC1 [Vandetanib] + CC1(C)CCC(c2ccc(Cl)cc2)=C(CN2CCN(c3ccc(C(=O)NS(=O)(=O)c4ccc(N[C@H](CCN5CCOCC5)CSc5ccccc5)c(S(=O)(=O)C(F)(F)F)c4)cc3)CC2)C1 [Navitoclax] (partner 0.5 µM)
Summary of the method: as §1

[1] = compound: C1=CC=C2C(=C1)N=C(S2)C(C#N)C3=NC(=NC=C3)NCCC4=CN=CC=C4 + C[C@]1(O)C[C@@H](c2nc(-c3ccc4ccc(-c5ccccc5)nc4c3)c3c(N)nccn32)C1 [Linsitinib] (partner 1 µM)
Summary of the method: as §1

[2] = compound: C1=CC=C2C(=C1)N=C(S2)C(C#N)C3=NC(=NC=C3)NCCC4=CN=CC=C4 + Cc1nc(Nc2ncc(C(=O)Nc3c(C)cccc3Cl)s2)cc(N2CCN(CCO)CC2)n1 [Dasatinib] (partner 0.075 µM)
Summary of the method: as §1

Cell Line | relative viability (NVP-TAE684 + Decitabine; first compound 0.2 µM) | relative viability (NVP-TAE684 + Decitabine; first compound 0.6325 µM) | relative viability (NVP-TAE684 + Decitabine; first compound 2 µM) | relative viability (Vandetanib + Navitoclax; first compound 0.02 µM) | relative viability (Vandetanib + Navitoclax; first compound 0.06325 µM) | relative viability (Vandetanib + Navitoclax; first compound 0.2 µM) | relative viability (Vandetanib + Navitoclax; first compound 0.6325 µM) | relative viability (Vandetanib + Navitoclax; first compound 2 µM) | relative viability ([1]; first compound 0.005 µM) | relative viability ([1]; first compound 0.01581 µM) | relative viability ([1]; first compound 0.05 µM) | relative viability ([1]; first compound 0.1581 µM) | relative viability ([1]; first compound 0.5 µM) | relative viability ([2]; first compound 0.005 µM) | relative viability ([2]; first compound 0.01581 µM) | relative viability ([2]; first compound 0.05 µM) | relative viability ([2]; first compound 0.1581 µM) | relative viability ([2]; first compound 0.5 µM)
PC-3 [JPC-3] | 0.846 | 0.73 | 0.75 | 0.783 | 0.738 | 0.777 | 0.719 | 0.451 | 0.898 | 0.983 | 0.957 | 0.942 | 0.965 | 0.877 | 1.07 | 0.962 | 1.08 | 0.73
NCI-H1792 | 0.359 | 0.558 | 0.309 | 0.676 | 0.573 | 0.599 | 0.626 | 0.609 | – | 0.711 | 0.537 | 0.495 | 0.39 | 0.722 | 0.83 | 0.837 | 1.29 | 0.665
NCI-H1355 | 0.372 | 0.383 | 0.31 | 0.931 | 0.809 | 0.577 | 1.01 | 1.03 | 0.764 | 0.849 | 0.847 | 1.05 | 0.714 | 0.674 | 0.66 | 0.699 | 0.772 | 0.478
HCC-827 | 0.301 | 0.279 | 0.311 | 1.04 | 0.975 | 0.993 | 0.464 | 0.153 | 0.988 | 0.987 | 0.961 | 1.03 | 0.931 | 0.331 | 0.301 | 0.336 | 0.307 | 0.284
NCI-H1944 | 0.437 | 0.519 | 0.413 | 1 | 1.05 | 1.05 | 1.01 | 0.86 | 1.09 | 1.25 | 1.2 | 1.34 | 1.2 | 0.211 | 0.195 | 0.21 | 0.22 | 0.2
NCI-H2405 | 0.684 | 0.683 | 0.397 | 0.786 | 0.426 | 0.889 | 1.23 | 0.696 | 0.817 | 0.889 | 0.847 | 0.911 | 1.01 | 0.214 | 0.187 | 0.168 | 0.234 | 0.219
HCC-366 | 0.37 | 0.401 | 0.315 | 1.09 | 1 | 1.06 | 1.06 | 1.05 | 0.56 | 0.709 | 0.693 | 0.834 | 0.558 | 0.591 | 0.848 | 0.539 | 0.824 | 0.676
NCI-H838 | 0.456 | 0.464 | 0.314 | 1.13 | 1.13 | 1.15 | 1.12 | 1.07 | 0.713 | 1.08 | 0.957 | 1.03 | 0.874 | 0.204 | 0.28 | 0.325 | 0.264 | 0.262
NCI-H520 | 0.508 | 0.45 | 0.267 | 0.946 | 1.04 | 1.08 | 1.07 | 1.04 | 0.552 | 0.97 | 0.923 | 1.11 | 0.735 | 0.231 | 0.158 | 0.188 | 0.324 | 0.18
HOP-62 | 0.242 | 0.236 | 0.266 | 0.975 | 1.07 | 0.999 | 1.18 | 1.01 | 1.13 | 1.19 | 0.919 | 1.21 | 0.932 | 0.496 | 0.59 | 0.685 | 0.807 | 0.565
NCI-H1651 | 0.614 | 0.566 | 0.502 | 0.927 | 1.11 | 1.08 | 1.07 | 0.928 | 0.695 | 0.846 | 1 | 1.18 | 0.921 | 0.307 | 0.35 | 0.587 | 0.393 | 0.3
NCI-H460 | 0.535 | 0.51 | 0.294 | 1.13 | 0.999 | 0.0215 | 1.25 | 1.09 | – | 1.15 | 1.02 | 1.17 | 0.502 | 0.356 | 0.47 | 0.451 | 0.732 | 0.418
NCI-H1734 | 0.466 | 0.347 | 0.432 | 0.854 | 0.766 | 0.801 | 0.804 | 0.818 | 0.779 | 0.939 | 0.881 | 0.946 | 0.797 | – | 0.476 | 0.479 | 0.605 | 0.401
NCI-H1915 | 0.284 | 0.263 | 0.257 | 0.769 | 0.781 | 0.772 | 0.794 | 0.772 | 1.08 | 1.09 | 1.09 | 1.18 | 1.13 | 0.36 | 0.294 | 0.28 | 0.335 | 0.357
NCI-H1975 | 0.401 | 0.389 | 0.36 | 1.14 | 1.13 | 1.13 | 0.992 | 1.1 | 0.823 | 1.07 | 0.972 | 1.07 | 0.738 | 0.352 | 0.333 | 0.35 | 0.37 | 0.24
NCI-H2087 | 0.305 | 0.261 | 0.192 | 1.02 | 0.832 | 0.948 | 1.16 | 1.08 | 1.03 | 0.954 | 1.07 | 1.1 | 0.915 | 0.72 | 0.927 | 0.81 | 1.09 | 0.651
LCLC-97TM1 | 0.208 | 0.184 | 0.153 | 0.399 | 0.556 | 0.345 | 0.403 | 0.411 | 0.218 | 0.186 | 0.175 | 0.191 | 0.225 | 0.735 | 0.923 | 1.03 | 0.99 | 0.792

Source: the supplement of paper PMC10307832
